# Marks after values point to notes of the source that are not given here.
# Legend:
# [1] = molecular target: human DLL4 (Homo sapiens, UniProt Q9NR61); assay: Binding affinity to DLL4
# [2] = tested on: human peripheral blood cells (PBC) from normal donors; assay: Cytokine release by human peripheral blood cells; format: cell-based; conditions: within expected range of negative control IgG1 antibodies
# [3] = tested on: DLL4-mediated Notch-1 activation; assay: Inhibition of DLL4-mediated Notch-1 activation; format: cell-based
# [4] = tested on: HCT-116 human colon xenograft tumors; assay: HCT-116 colon xenograft model; format: in vivo, female SCID mice
# Experimental: The effect of anti-DLL4-VEGF DVD-Igs (ABT-165) in combination with chemotherapy on tumor growth was evaluated on HCT-116 human colon xenograft tumors in female SCID mice. Briefly, 5×10^6 cells were inoculated subcutaneously into the right hind flank. Tumors were allowed to establish for 14 days, at which point tumor volume was determined using electronic caliper measurements using the formula: L×W^2/2. Mice were allocated into treatment groups (n=9 per group) so that each cohort had equivalent mean tumor volume of 192 mm^3 prior to initiation of therapy. Animals were dosed with 5-fluorouracil (5-FU), folinic acid (leucovorin), irinotecan, anti-VEGF mAb (AB014), and/or anti-DLL4-VEGF DVD-Ig (ABT-165) at the dose and schedule in Table 4. An anti-tetanus toxoid mAb (AB095) was used as a non-targeting isotype control. Tumor volume was measured twice a week for the duration of the experiment.
# [5] = tested on: human VEGF; assay: Binding affinity to VEGF
# Chain of human VEGF (P15692 207-320 limits assumed): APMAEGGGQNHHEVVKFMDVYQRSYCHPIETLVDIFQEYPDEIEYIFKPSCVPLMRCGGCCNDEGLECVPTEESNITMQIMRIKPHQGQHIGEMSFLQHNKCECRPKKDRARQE
# [6] = molecular target: FcRn (Homo sapiens, UniProt P55899); assay: Binding to FcRn; conditions: compared with human IgG1
# Chain of FcRn (P55899 24-297 limits assumed, species assumed): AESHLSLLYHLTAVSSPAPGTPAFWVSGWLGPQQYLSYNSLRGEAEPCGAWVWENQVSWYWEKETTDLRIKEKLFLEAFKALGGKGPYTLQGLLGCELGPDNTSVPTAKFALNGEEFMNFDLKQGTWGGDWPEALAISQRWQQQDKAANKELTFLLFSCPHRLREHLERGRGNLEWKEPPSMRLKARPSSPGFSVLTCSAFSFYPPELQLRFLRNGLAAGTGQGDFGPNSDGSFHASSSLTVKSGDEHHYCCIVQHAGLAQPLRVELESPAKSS
# Chain of FcRn (P61769 21-119 partner, species assumed): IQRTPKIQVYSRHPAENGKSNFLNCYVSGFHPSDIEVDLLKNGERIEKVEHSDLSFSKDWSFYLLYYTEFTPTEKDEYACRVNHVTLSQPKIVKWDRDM
substance,measurement,setting,value
"ABT-165: dual-variable domain humanized immunoglobulin with dual specificity for DLL4 and VEGF; light chain SEQ ID No. 15, heavy chain SEQ ID No. 16",affinity to DLL4,[1],nanomolar affinities
same,ability to stimulate cytokine release,[2],low ability
same,inhibition of DLL4-mediated Notch-1 activation,[3],potent inhibition
same,efficacy compared to anti-VEGF monoclonal antibody (alone or each with FOLFIRI),"[4]; colon cancer xenograft model, FIG. 1",superior efficacy
same,% TGI (percent tumor growth inhibition = 100 − (T/C × 100)),"[4]; day 26 post size match, mean tumor volume vs treatment control group, dose and regimen as in Table 4, n=9 per group",67* %
same,affinity to VEGF,[5],nanomolar affinities
same,binding to FcRn,[6],pH-dependent binding to FcRn within the expected range of human IgG1
